Marks after values point to notes of the source that are not given here.
What was measured:
[1] = with increasing food intake; cited from earlier work
[2] = Example 2: phase 1 crossover 3×3 study, fixed kilocalorie meal at 20% and 50% fat, single-dose pharmacokinetics of nelfinavir 250 mg tablets; assay type: in vivo, human (normal, healthy volunteers)
Protocol: A study was conducted as a phase 1, randomized, open-label, crossover 3×3 study, designed to evaluate the impact of a fixed kilocalorie meal at 20% and 50% fat content on single-dose pharmacokinetic parameters of the nelfinavir 250 mg tablet formulation in normal, healthy volunteers. Subjects were dosed with 1250 mg of nelfinavir 3 times at one-week intervals and 24-hour PK profiles were collected following each of the doses. Each subject was assigned three meals with different fat contents prior to dosing (fasting, 500kcal with 20% fat, 500 kcal with 50% fat) using a Latin square design. Twenty-four subjects entered the study and twenty-two subjects completed it. Each subject received the following treatment in random order on Days 1, 8 and 15: 5×250 mg nelfinavir tablets with fasting; 5×250 mg nelfinavir tablets, with a meal comprising 500Kcal/20% fat; and 5×250 mg nelfinavir tablets with a meal having 500 Kcal/50% fat. The moderate calorie/low fat meal consisted of 500 Kcal with 20% fat (11.3 grams of fat). The moderate calorie/high fat meal consisted of 500 Kcal with 50% fat (27.8 grams of fat). Subjects were administered nelfinavir 1250-mg (five 250-mg tablets) on the morning of the pharmacokinetic evaluations. The nelfinavir terminal half-life (t½) in plasma is typically 3.5 to 5 hours. […] Subjects participated on an outpatient basis; however, subjects were admitted to the in-patient facility the evening prior to each PK evaluation and remained in the in-patient facility for approximately 16 hours post-dosing. The subjects returned the next morning (8 hours later) for their last 24 hr. pharmacokinetic blood draw. All pharmacokinetic evaluations were performed in the in-patient facility. Blood samples were collected and analyzed for plasma concentrations of nelfinavir and M8. For the fasting evaluation, subjects were required to complete an overnight fast of at least 10 hours prior to dosing in the morning. For the fed PK evaluations, subjects were required to complete an overnight fast of at least 10 hours, prior to receiving the protocol-specific standardized breakfast meal. Subjects were given 30 minutes to complete their standardized breakfast meal. Dosing was performed in the morning, immediately following the subject's completion of the standardized breakfast meal and after the subject's predose PK specimen had been collected. Subjects could not ingest water 1 hour prior to or 1 hour after dosing. A standardized lunch was given at least 4 hours after the morning dose and a standardized dinner was given at least 10 hours after the morning dose. Actual sampling times were used for all data evaluation. Mean Cmax and AUC values were calculated as the antilogs of least-squares mean log-transformed values (analogous to geometric means). Ratios and confidence intervals for Cmax and AUC values are also based on log-transformed values. Mean values for all other pharmacokinetic parameters are least-squares means. Ratios and confidence intervals for these parameters are based on untransformed values. Blood samples, 5 mL each, were collected as in Example 1. The timing of each sample collection was as follows: Predose and at 0.5, 1, 2, 3, 4, 6, 8, 12, 16 and 24 hours postdose on Days 1, 8, and 15. All blood samples were kept at […] (using either wet ice or cryoblock) until centrifugation. Blood samples were centrifuged within 1 hour of collection, at 3000 rpm (approximately 2619×g) for 15 minutes, to separate the plasma. The plasma samples were split evenly into 2 aliquots and stored in appropriately labeled polypropylene transport tubes. Plasma was stored frozen at […] or lower until analysis. Pharmacokinetic parameter values were calculated from plasma nelfinavir and M8 concentration-time data using standard noncompartmental pharmacokinetic methods as in Example 1. Plasma concentrations of nelfinavir and M8 were measured by validated high-performance liquid chromatography (HPLC) methods. […]

[3] = Example 1: phase I crossover food-effect study, single-dose pharmacokinetics of nelfinavir 250 mg tablets (total kilocalories and fat); assay type: in vivo, human (normal healthy volunteers); conditions: for bioavailability of M8 higher relative to fasting, based on AUC(0-∞): M8 after 1250 mg nelfinavir
Protocol: A phase I, randomized, open-label crossover study to evaluate the impact of total kilocalories and fat content on single-dose pharmacokinetic parameters of the nelfinavir 250 mg tablet formulation in normal healthy volunteers was performed. Healthy volunteers entered the study and received the following treatment in random order at least 1 week apart: 1) 5×250 mg nelfinavir tablets, fasted 2) 5×250 mg nelfinavir tablets (breakfast meal 1, 125 Kcal/20% fat=low cal/low fat) 3) 5×250 mg nelfinavir tablets (breakfast meal 2, 500 Kcal/20% fat=medium cal/low fat) 4) 5×250 mg nelfinavir tablets (breakfast meal 3, 1000 Kcal/50% fat=high cal/high fat). Plasma concentrations of nelfinavir and its active hydroxy-t-butylamide metabolite (M8) were measured by validated high performance liquid chromatography (HPLC) methods. Pharmacokinetic parameters were determined from plasma concentration-time data using standard methods. Nelfinavir was administered as five 250-mg tablets with 240 mL of water. All subjects received a standardized snack the evening they were admitted to the in-patient facility. For the fasting evaluation, subjects were required to complete an overnight fast of at least 10 hours prior to dosing in the morning. For the fed pharmacokinetic evaluations, subjects were required to complete an overnight fast of at least 10 hours, prior to receiving the protocol-specific standardized breakfast meal (that is, Meal 1, Meal 2, or Meal 3). Subjects were given 30 minutes to complete their standardized breakfast meal. Dosing was performed in the morning, immediately following the subject's completion of the standardized breakfast meal and after the subject's pre-dose pharmacokinetic specimen had been collected. Subjects could not ingest water 1 hour prior to or 1 hour after dosing. A standardized lunch was given at least 4 hours after the morning dose and a standardized dinner was given at least 10 hours after the morning dose. For pharmacokinetic sampling, blood samples, 5 mL each, were collected into heparinized vacuum tubes (green top tubes) via an indwelling catheter or direct venipuncture. The actual time of each collection was recorded on the source document. The timing of each sample collection was as follows: predose and at 0.5, 1, 2, 3, 4, 6, 8, and 12 hours postdose on Days 1, 8,15, and 22. Pharmacokinetic parameter values were calculated using WinNonlin Pro Version 2.1. Individual nelfinavir plasma concentrations were used to predict steady-state plasma concentrations during BID administration with meals of various Kcal content. WinNonlin Pro Version 3.2 noncompartmental superposition was used for this simulation. Predicted steady-state Cmax and Cmin values were compared.

[4] = M8 after 1250-mg nelfinavir oral dose, fasting (reference)
[5] = M8 after 1250-mg nelfinavir with high calorie/high fat/high protein meal
[6] = M8 after 1250-mg nelfinavir with low calorie/low fat/low protein meal
[7] = M8 after 1250-mg nelfinavir with moderate calorie/low fat/moderate protein meal
[8] = high calorie/high fat/high protein meal vs fasting
[9] = low calorie/low fat/low protein meal vs fasting
[10] = moderate calorie/low fat/moderate protein meal vs fasting

Compound: Cc1c(O)cccc1C(=O)N[C@@H](CSc1ccccc1)[C@H](O)CN1C[C@H]2CCCC[C@H]2C[C@H]1C(=O)NC(C)(C)CO [M8]
- M8 concentrations relative to nelfinavir [1]: 15-20%
- M8 AUC∞/Nelfinavir AUC∞(%) ([2]; 1250 mg nelfinavir single dose, fasting): 8.6%
- M8 AUC∞/Nelfinavir AUC∞(%) ([2]; Kcal/Fat % 500/20%): 8.7%
- M8 AUC∞/Nelfinavir AUC∞(%) ([2]; Kcal/Fat % 500/50%): 11.4%
- mean M8 AUC(0-∞) higher relative to fasting subjects ([2]; test meal containing 20% fat): 3 fold
- mean M8 AUC(0-∞) higher relative to fasting subjects ([2]; test meal containing 50% fat): 6.8 fold
- percentage of M8 relative to nelfinavir ([2]; remained the same with increasing fat intake): around 10%
- M8 AUCinf/NFV AUCinf (%) ([3]; 1250 mg nelfinavir single oral dose, fasting): 26.5%
- bioavailability of M8 higher relative to fasting, based on AUC(0-∞) ([3]; high calorie meal (1000 Kcal)): 4.1 fold
- bioavailability of M8 higher relative to fasting, based on AUC(0-∞) ([3]; low calorie meal (125 Kcal)): 1.3 fold
- bioavailability of M8 higher relative to fasting, based on AUC(0-∞) ([3]; moderate calorie meal (500 Kcal)): 1.8 fold
- M8 AUC(0-tlqc), least-squares mean [3, 4]: 0.655^a μg · hr/mL
- M8 AUC(0-∞), least-squares mean [3, 4]: 2.81^c μg · hr/mL
- M8 t1/2, least-squares mean [3, 4]: 2.68^c hr
- M8 tmax, least-squares mean [3, 4]: 3.45^b hr
- M8 AUC(0-tlqc), least-squares mean [3, 5]: 7.58^g μg · hr/mL
- M8 AUC(0-∞), least-squares mean [3, 5]: 11.5^a μg · hr/mL
- M8 Cmax, least-squares mean [3, 5]: 1.28^g μg/mL
- M8 t1/2, least-squares mean [3, 5]: 3.90^a hr
- M8 tmax, least-squares mean [3, 5]: 5.01^a hr
- M8 AUC(0-tlqc), least-squares mean [3, 6]: 2.01^d μg · hr/mL
- M8 AUC(0-∞), least-squares mean [3, 6]: 3.66^f μg · hr/mL
- M8 Cmax, least-squares mean [3, 6]: 0.533^d μg/mL
- M8 t1/2, least-squares mean [3, 6]: 2.40^f hr
- M8 tmax, least-squares mean [3, 6]: 3.88^e hr
- M8 AUC(0-tlqc), least-squares mean [3, 7]: 3.46^a μg · hr/mL
- M8 AUC(0-∞), least-squares mean [3, 7]: 5.11^e μg · hr/mL
- M8 Cmax, least-squares mean [3, 7]: 0.693^a μg/mL
- M8 t1/2, least-squares mean [3, 7]: 2.96^e hr
- M8 tmax, least-squares mean [3, 7]: 4.49^a hr
- M8 Cmax, least-squares mean ([3]; M8 in plasma after 1250-mg nelfinavir oral dose, fasting (reference)): 0.228^a μg/mL
- M8 AUC/nelfinavir AUC ([3]; fed state): 15-21%
- M8 AUCinf/NFV AUCinf (%) ([3]; food intake 125 kcal/20% fat): 15.8%
- M8 AUCinf/NFV AUCinf (%) ([3]; food intake 500 kcal/20% fat): 15.3%
- M8 AUCinf/NFV AUCinf (%) ([3]; food intake 1000 kcal/50% fat): 20.8%
- M8 AUC(0-tlqc) ratio (100% × test/reference) [3, 8]: 1157%
- M8 AUC(0-∞) ratio (100% × test/reference) [3, 8]: 408%
- M8 Cmax ratio (100% × test/reference) [3, 8]: 562%
- M8 t1/2 ratio (100% × test/reference) [3, 8]: 145%
- M8 tmax ratio (100% × test/reference) [3, 8]: 145%
- M8 AUC(0-tlqc) ratio (100% × test/reference) [3, 9]: 343%
- M8 AUC(0-∞) ratio (100% × test/reference) [3, 9]: 130%
- M8 Cmax ratio (100% × test/reference) [3, 9]: 234%
- M8 t1/2 ratio (100% × test/reference) [3, 9]: 89.4%
- M8 tmax ratio (100% × test/reference) [3, 9]: 113%
- M8 AUC(0-tlqc) ratio (100% × test/reference) [3, 10]: 529%
- M8 AUC(0-∞) ratio (100% × test/reference) [3, 10]: 182%
- M8 Cmax ratio (100% × test/reference) [3, 10]: 304%
- M8 t1/2 ratio (100% × test/reference) [3, 10]: 110%
- M8 tmax ratio (100% × test/reference) [3, 10]: 130%

— US20040186066A1, “Method of treatment with nelfinavir” (AGOURON PHARMACEUTICALS, INC., priority 2003, published 2004)
